# In patent US20020039567A1, “Methods of treating bone or cartilage conditions by the administration of creatine” (priority 1998, published 2002):
# Key:
# [1] = test system: osteoblasts (monolayer culture); test: Cell viability (neutral red uptake), monolayer osteoblast cell culture; type: cell-based, rat
# Experimental: (§1) This isolation technique is based on the ability of osteoblasts to migrate from bone onto a substratum. Parietal and frontal calvariae (4 per animal) were aseptically explanted from 6 day-old IcoIbm rats. The calvariae were placed in Tyrode's balanced salt solution, calcium and magnesium free (TESS). The periosteum was enzymatically removed with 0.05% trypsin and 0.02% collagenase A (0.76 U/mg) dissolved in TBSS (40 calvaria/20 ml). The calvariae were shaken for 70 minutes in a waterbath at 37° C. They were washed with TESS and then transferred to 60 mm culture dishes (40 calvariae/dish) containing 5 ml of 0.02% collagenase A (0.76 U/mg) in culture medium BGJb Fitton-Jackson modification and placed in the incubator for 4 hours. The calvariae were then washed with culture medium B supplemented with 10% foetal calf serum (FCS). The calvariae were transferred into 60 mm culture dishes (4 frontal and 4 parietal/dish). The growth medium supplemented with 10% FCS and 50 μg/ml ascorbate was completely changed every 48 hours. The culture was kept for 3 weeks.
# After 3 weeks the migrated cells were harvested. The dish was washed with TESS, and 5 ml of TESS containing 0.05% trypsin and 0.02% collagenase A (0.76 U/mg) was added. After 1 hour in the incubator, the dish was washed with culture medium BGJb supplemented with 10% FCS. The dishes containing the calvariae and cells were rinsed with serum containing media BGJb. The cells obtained were filtered through a 40 μm nylon mesh to remove bone debris and cell aggregates. The suspended cells were centrifuged at 600 g for 5 minutes. The cell pellet was resuspended in serum containing medium BGJb and centrifuged. The viability of the resuspended cells was examined by the dye exclusion of 0.4% trypan blue, and the cells were counted in a haeinocytometer. The inoculation densities were 2·10^5/10 cm^2 for monolayer and 2·10^5/30 μl for micromasses. The micromass cultures were kept for 1 hour in the incubator before 2 ml growth medium was added.
# All the cultures were kept at 37° C. in a humidified atmosphere of 5% CO2, 95% air. All culture media were supplemented with 50 μg/ml ascorbate. To analyze the collagen types, 60 μg/ml beta-aminopropionitrile (beta-APN) was added to the culture medium. During cell isolation and inoculation, no ascorbate was used to increase plating efficiency. No antibiotics and no beta-glycerophosphate were added. The media were completely changed every 48 hours (60 mm culture dish 5 ml; 35 mm culture dish 2 ml).
# The method described in (Lindl et al. 1994) was used.
# The uptake of NR into lysosomes is […] the metabolic status of the cell.
# 0.5 mg Neutral red/ml growth medium, warmed up to 37° C. for at least 2 hours,
# 50% ethanol in 1% acetic acid
# 1. The cells were incubated in 2 ml/10 cm^2NR solution at 37° C. for 3 hours.
# 2. The supernatant was removed,
# 3. washed with PBS, at least 3 times, until no crystals were present.
# 4. Addition of 4 ml/10 cm^2 extraction buffer.
# 5. The absorbance of the supernatant (3 aliquots/dish) was read at 540 nm versus extraction buffer.
# 6. If the absorbance was higher than 1, the samples were diluted with extraction buffer.
# The mean value and the standard deviation consisted of n independent experiments. The values for the individual experiments were gained from the mean of 3 aliquots of the same dish. To compare the treatment, contrasts analysis of variance models were evaluated.
# [2] = test system: osteoblasts (micromass culture); test: Mitochondrial activity (MTT conversion), micromass osteoblast cell culture; type: cell-based, rat; conditions: for MTT reaction: 2 weeks vs 1 week
# Experimental: as §1
# After 3 weeks the migrated cells were harvested. The dish was washed with TESS, and 5 ml of TESS containing 0.05% trypsin and 0.02% collagenase A (0.76 U/mg) was added. After 1 hour in the incubator, the dish was washed with culture medium BGJb supplemented with 10% FCS. The dishes containing the calvariae and cells were rinsed with serum containing media BGJb. […] The viability of the resuspended cells was examined by the dye exclusion of 0.4% trypan blue, and the cells were counted in a haeinocytometer. […]
# Originally, Mosmann, 1983 described the general principle involved in the detection of cell growth/cell death as indicated by the conversion of the tetrazolium salt (MTT) to the colored formazan by mitochondrial dehydrogenases. The concentration of this can then be measured spectrophotoinetrically. […]
# 6. The absorbance of the supernatant (3 aliquots/dish) was read at 550 nm versus DMSO.
# If the absorbance was higher than 1, the samples were diluted with DMSO.
smiles,measurement,setting,value
CN(CC(=O)O)C(=N)N [creatine],NR uptake (FIG. 1),"[1]; 10 mM and 20 mM creatine vs control, 1 and 2 weeks",no significant difference between the groups
same,toxic effect (from NR uptake),[1]; 10 mM creatine,no toxic effect
same,"NR uptake (FIG. 1), difference to control","[1]; 10 mM creatine vs control, 3 weeks",not significant
same,NR uptake (FIG. 1),"[1]; 10 mM creatine, 3 weeks compared to 1 week, p<0.02",significantly higher
same,NR uptake (FIG. 1),"[1]; 20 mM creatine vs control, 3 weeks, p<0.008",significantly lowered NR uptake
same,toxic effect (from NR uptake),"[1]; 20 mM creatine, 3 weeks",some toxic effects on the proliferation of the cells
same,MTT reaction,"[2]; 10 mM creatine, p<0.02",significantly higher MTT reaction
same,MTT reaction,"[2]; 20 mM creatine, p<0.006",significantly higher MTT reaction
same,MTT conversion,"[2]; 20 mM creatine, 3 weeks vs 2 weeks, p<0.015",significantly lower MTT conversion
